The structures appear in SMILES notation. Entries after “also recorded” stand apart in the source; their conditions may differ.

The subject of data set [1] is E. coli O157:H7 strain 86-24. Details: species or system piglets. Particulars: in vivo.
The conditions of data set [2]: in vivo.

On to `O[C@H]1[C@H]2[C@H](O)CCCN2C[C@H]1O` [swainsonine], for which, in data set [1], the “progression and severity of disease / outcome at 68 h post challenge” value is “progression of disease was less rapid and for all except one, much less severe; also recorded: Two of the swainsonine-treated pigs were recovering from the disease by 68 h post challenge”. Besides, in the data set with Vero cells, the “lowest concentration at which a protective effect from co-incubation was observed” value is listed as 0.012 μg/well and the “toxic effects in swainsonine control wells” value is recorded as “No toxic effects were observed”. Also, the adverse effects result in data set [2] is “no adverse effects”.

For the origin of these results see patent publication US6670374B1 (priority 2002, dated 2003).
